Among the data in US8642609B2, “Modulators of ATP-binding cassette transporters” (Vertex Pharmaceuticals Incorporated, priority 2003, dated 2014) are EC50 and Emax values, retold here.

In this experiment the target is T1, ΔF508-CFTR (Homo sapiens, UniProt P13569, DEL508-508).
T1 construct: expressed in transfected cells
Description: Membrane potential optical assay (FRET/VIPR), identification of correction compounds. It counts as cell-based. As to conditions: for Emax: relative efficacy. An outline of the steps:
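Corrector screen: FRET voltage-sensor dyes (CC2-DMPE donor, DiSBAC2(3)) report Cl^− efflux-driven depolarization after 10 μM forskolin and 20 μM genistein in Cl^−-free medium. Beforehand, ΔF508-CFTR NIH3T3 fibroblasts received compound for 16 hrs at 37° C; temperature-corrected cells (27° C) served as positive control.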

T1 sequence (P13569 with tags, fused parts or gaps DEL508-508): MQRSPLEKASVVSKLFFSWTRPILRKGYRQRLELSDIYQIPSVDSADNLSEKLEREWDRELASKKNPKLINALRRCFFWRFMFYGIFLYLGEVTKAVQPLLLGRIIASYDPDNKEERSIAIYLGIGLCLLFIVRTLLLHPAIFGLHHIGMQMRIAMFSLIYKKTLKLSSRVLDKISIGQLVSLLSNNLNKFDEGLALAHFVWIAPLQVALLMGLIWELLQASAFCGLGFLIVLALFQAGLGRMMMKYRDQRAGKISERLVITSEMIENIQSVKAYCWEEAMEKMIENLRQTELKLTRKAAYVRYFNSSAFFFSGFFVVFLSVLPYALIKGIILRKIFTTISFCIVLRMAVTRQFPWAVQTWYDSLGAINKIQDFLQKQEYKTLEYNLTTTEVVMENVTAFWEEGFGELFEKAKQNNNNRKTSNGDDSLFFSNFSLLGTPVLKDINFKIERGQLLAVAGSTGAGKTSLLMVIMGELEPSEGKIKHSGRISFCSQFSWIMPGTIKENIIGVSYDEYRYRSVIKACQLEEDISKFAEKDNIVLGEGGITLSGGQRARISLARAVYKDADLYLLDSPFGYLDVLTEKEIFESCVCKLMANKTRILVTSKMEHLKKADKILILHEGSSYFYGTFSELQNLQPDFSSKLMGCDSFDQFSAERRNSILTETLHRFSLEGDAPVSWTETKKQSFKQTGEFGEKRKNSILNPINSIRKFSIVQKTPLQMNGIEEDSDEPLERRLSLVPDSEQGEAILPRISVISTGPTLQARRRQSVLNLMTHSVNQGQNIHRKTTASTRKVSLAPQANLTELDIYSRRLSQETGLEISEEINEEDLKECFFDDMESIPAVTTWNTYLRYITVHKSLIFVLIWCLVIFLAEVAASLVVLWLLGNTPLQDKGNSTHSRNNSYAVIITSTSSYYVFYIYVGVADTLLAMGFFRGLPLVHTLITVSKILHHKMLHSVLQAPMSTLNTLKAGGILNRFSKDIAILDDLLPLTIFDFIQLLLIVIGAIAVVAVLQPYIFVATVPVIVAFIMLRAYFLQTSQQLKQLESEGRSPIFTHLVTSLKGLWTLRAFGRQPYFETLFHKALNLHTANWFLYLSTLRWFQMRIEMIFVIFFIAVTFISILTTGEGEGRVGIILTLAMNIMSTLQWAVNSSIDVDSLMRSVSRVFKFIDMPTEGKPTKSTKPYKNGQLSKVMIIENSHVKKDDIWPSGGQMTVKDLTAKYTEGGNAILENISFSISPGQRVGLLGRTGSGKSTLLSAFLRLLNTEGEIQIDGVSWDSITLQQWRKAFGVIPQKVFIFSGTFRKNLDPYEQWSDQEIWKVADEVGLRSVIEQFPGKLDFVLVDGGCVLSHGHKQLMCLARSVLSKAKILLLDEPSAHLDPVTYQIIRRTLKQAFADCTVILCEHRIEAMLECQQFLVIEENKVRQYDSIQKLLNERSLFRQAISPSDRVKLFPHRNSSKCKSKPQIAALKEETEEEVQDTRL

On to `COc1nc(C(C)N2CCN(S(=O)(=O)c3ccc(Br)cc3)CC2)nc2ccccc12` (centres unmarked) [compound 227], for which the EC50 was 25 to 60 µM and the Emax lay within 25 to 100%.
For the compound `CC(c1nc2ccccc2c(=O)n1C)N1CC2CC1CN2` (centres unmarked) [compound 186], the EC50 fell in the range of 25 to 60 µM and the Emax was less than 25%.
For `CC(c1nc2ccccc2c(=O)n1C)N1CCN(S(=O)(=O)c2ccc(-c3cc(C(F)(F)F)nn3C)s2)CC1` (centres unmarked) [compound 258], in that order: 25 to 60 µM and less than 25%.
In the same order, the values of `COc1ccc(S(=O)(=O)N2CCN(C(C)c3nccc(OC4CCCC4)n3)CC2)cc1` (centres unmarked) [compound 382] are 10 to 25 µM and 25 to 100%.
As for `COc1ccc(S(=O)(=O)N2CCN(C3(c4nc(N5CCCCC5)c5ccccc5n4)CC3)CC2)cc1` [compound 387], the EC50 is less than 10 µM and the Emax was greater than 100%.
In the same order, the values of `CC(c1nc2ccccc2c(=O)n1C)N1CCN(S(=O)(=O)c2ccc(C(N)=O)cc2)CC1` (centres unmarked) [compound 291] are 25 to 60 µM and less than 25%.
In the same order, the values of `Cc1ccccc1S(=O)(=O)N1CCN(C(C)c2nc3ccc(Cl)cc3c(=O)n2C)CC1` (centres unmarked) [compound 80] are 10 to 25 µM and 25 to 100%.
For the compound `CC(c1nc2ccc(Cl)cc2c(=O)n1C)N1CCN(C(=O)c2ccccc2Cl)CC1` (centres unmarked) [compound 39], the concentration for a half-maximal effect (EC50) fell in the range of 25 to 60 µM and the Emax was in the range of 25 to 100%.
For `CCN(CC)c1nc(C(C)N2CCN(S(=O)(=O)c3ccc(OC)cc3)CC2)nc2ccccc12` (centres unmarked) [compound 195], in that order: 10 to 25 µM and 25 to 100%.
As for `CCOc1nc(C(C)N2CCN(S(=O)(=O)c3ccc(Br)cc3)CC2)nc2ccccc12` (centres unmarked) [compound 228], the EC50 was less than 10 µM and the maximal response (Emax) was greater than 100%.
For `CC(NC1CCNCC1)c1nc2ccccc2c(=O)n1C` (centres unmarked) [compound 179], in that order: 25 to 60 µM and less than 25%.
`CCNc1nc(C(C)N2CCN(S(=O)(=O)c3ccc(OC)cc3)CC2)nc2ccccc12` (centres unmarked) [compound 194]: the EC50 was 25 to 60 µM and the Emax is 25 to 100%.
On to `CC(NCC1CCCCN1)c1nc2ccccc2c(=O)n1C` (centres unmarked) [compound 183], for which the maximum response (Emax) is less than 25%.
Regarding `COc1ccc(S(=O)(=O)N2CCCN(C(C)c3nc4ccccc4c(=O)n3C)CC2)cc1` (centres unmarked) [compound 170], the EC50 was in the range of 25 to 60 µM and the Emax was in the range of 25 to 100%.
For `COc1cc(C(=O)N2CCN(C(C)c3nc4ccc(Cl)cc4c(=O)n3C)CC2)cc(OC)c1OC` (centres unmarked) [compound 14], in that order: 25 to 60 µM and less than 25%.
For `CC(c1nc2ccccc2c(=O)n1C)N1CCN(S(=O)(=O)c2c(Cl)nc3sccn23)CC1` (centres unmarked) [compound 268], in that order: 25 to 60 µM and less than 25%.
For `COc1ccc(S(=O)(=O)NCCNC(C)c2nc3ccccc3c(=O)n2C)cc1` (centres unmarked) [compound 167], in that order: 25 to 60 µM and less than 25%.
For `COc1ccc(S(=O)(=O)N2CCN(C(C)c3nc(N4CC[C@H](O)C4)c4ccccc4n3)CC2)cc1` (some centres unmarked) [compound 318], the EC50 fell in the range of 25 to 60 µM and the Emax was 25 to 100%.
In the same order, the values of `CC(c1nc2cc(Cl)ccc2c(=O)n1C)N1CCN(S(=O)(=O)c2ccc(OC(F)(F)F)cc2)CC1` (centres unmarked) [compound 99] are less than 10 µM and 25 to 100%.
For `CC(c1nc2ccccc2c(=O)n1C)N1CCC(NS(=O)(=O)c2ccc(Br)cc2)C1` (centres unmarked) [compound 163], in that order: 25 to 60 µM and less than 25%.
For `CC(c1nc2ccccc2c(=O)n1C)N1CCN(S(=O)(=O)c2ccc(F)cc2)CC1` (centres unmarked) [compound 10], in that order: 25 to 60 µM and 25 to 100%.
Regarding `CC(c1nc(N(C)C)c2ccccc2n1)N1CCN(S(=O)(=O)c2ccc(Br)cc2)CC1` (centres unmarked) [compound 220], the concentration for a half-maximal effect (EC50) is 25 to 60 µM and the Emax is greater than 100%.
In the same order, the values of `COc1ccc(S(=O)(=O)N2CCN(C(C)c3nc(N4CC5CCC4C5)c4ccccc4n3)CC2)cc1` (centres unmarked) [compound 361] are less than 10 µM and greater than 100%.
In the same order, the values of `CCn1c(C(C)N2CCN(S(=O)(=O)c3ccc(Cl)c([N+](=O)[O-])c3)CC2)nc2ccc(Cl)cc2c1=O` (centres unmarked) [compound 34] are 25 to 60 µM and less than 25%.
For `CCNc1nc(C(C)N2CCN(S(=O)(=O)c3ccc(Cl)cc3)CC2)nc2ccccc12` (centres unmarked) [compound 234], in that order: 10 to 25 µM and 25 to 100%.
For `COc1ccc(S(=O)(=O)N2CCC(N(C)C(C)c3nc4ccccc4c(=O)n3C)CC2)cc1` (centres unmarked) [compound 314], the EC50 is 25 to 60 µM and the Emax was in the range of 25 to 100%.
For `CC(c1nc2ccccc2c(=O)n1C)N(CCN(C)S(=O)(=O)c1ccc(Br)cc1)S(=O)(=O)c1ccc(Br)cc1` (centres unmarked) [compound 202], in that order: 25 to 60 µM and less than 25%.
For `CC(c1nc2ccc(Cl)cc2c(=O)n1C)N1CCN(C(=O)Nc2ccccc2Br)C(C)C1` (centres unmarked) [compound 2], in that order: 25 to 60 µM and 25 to 100%.
For `CC(c1nc2ccc(S(C)(=O)=O)cc2c(=O)n1C)N1CCN(S(=O)(=O)c2ccc(Br)cc2)CC1` (centres unmarked) [compound 142], the EC50 lay within 10 to 25 µM and the Emax is 25 to 100%.
For `COc1ccc2nc(C(C)N3CCN(S(=O)(=O)c4ccc(C)cc4)CC3)n(C)c(=O)c2c1` (centres unmarked) [compound 134], in that order: 10 to 25 µM and 25 to 100%.
With `COc1ccc(S(=O)(=O)N2CCN(C(C)c3nc(N4CCCC(C)C4)c4ccccc4n3)CC2)cc1` (centres unmarked) [compound 305], the EC50 is less than 10 µM and the Emax is 25 to 100%.
In the same order, the values of `CCCn1c(C(C)N2CCN(S(=O)(=O)c3ccc(Cl)c([N+](=O)[O-])c3)CC2)nc2ccccc2c1=O` (centres unmarked) [compound 20] are 25 to 60 µM and less than 25%.
For `CC(c1nc2ccccc2c(=O)n1C)N1CCC(NS(=O)(=O)c2ccc(Br)cc2)CC1` (centres unmarked) [compound 166], in that order: less than 10 µM and 25 to 100%.
In the same order, the values of `COc1ccc(S(=O)(=O)N2CCN(C(C)c3nc(OCCN(C)C)c4ccccc4n3)CC2)cc1` (centres unmarked) [compound 301] are 25 to 60 µM and 25 to 100%.
On to `CCCn1c(C(C)N2CCN(C(=O)CSc3ccccc3)CC2)nc2ccccc2c1=O` (centres unmarked) [compound 46], for which the EC50 lay in the range of 25 to 60 µM and the Emax fell in the range of 25 to 100%.
For `CC(NC1CCN(S(=O)(=O)c2ccc(Br)cc2)CC1)c1nc2ccccc2c(=O)n1C` (centres unmarked) [compound 210], in that order: less than 10 µM and greater than 100%.
In the same order, the values of `Cc1ccc(S(=O)(=O)N2CCN(C(C)c3nc4cc(Cl)ccc4c(=O)n3C)CC2)cc1` (centres unmarked) [compound 92] are less than 10 µM and greater than 100%.
Regarding `CC(c1nc2cc(Cl)ccc2c(=O)n1C)N1CCN(S(=O)(=O)c2ccc(Br)cc2)CC1` (centres unmarked) [compound 95], the EC50 was less than 10 µM and the Emax fell in the range of 25 to 100%.
For `CC(c1nc2ccccc2c(=O)n1C)N1CCN(C(=O)c2ccc(C(F)(F)F)cc2)CC1` (centres unmarked) [compound 54], in that order: 25 to 60 µM and 25 to 100%.
In the same order, the values of `CCSc1ccc(S(=O)(=O)N2CCN(C(C)c3nc4ccccc4c(=O)n3C)CC2)cc1` (centres unmarked) [compound 351] are 25 to 60 µM and less than 25%.
For `CC(c1nc2ccccc2c(=O)n1C)N1CC2CC1CN2S(=O)(=O)c1ccc(Br)cc1` (centres unmarked) [compound 177], in that order: 25 to 60 µM and 25 to 100%.
As for `COc1ccc(S(=O)(=O)N2CCN(C(C)c3nc(OCCN4CCCC4)c4ccccc4n3)CC2)cc1` (centres unmarked) [compound 299], the EC50 was 10 to 25 µM and the Emax lay in the range of 25 to 100%.
For `COc1ccc(S(=O)(=O)N2CCN(C(C)c3nc4ccc(F)cc4c(=O)[nH]3)CC2)cc1` (centres unmarked) [compound 377], in that order: 25 to 60 µM and 25 to 100%.
In the same order, the values of `COc1ccc(S(=O)(=O)N2CCN(C(C)c3nc(N4CCCCCC4)c4ccccc4n3)CC2)cc1` (centres unmarked) [compound 319] are less than 10 µM and 25 to 100%.
For `Cc1cccc(S(=O)(=O)N2CCN(C(C)c3nc4ccc(Cl)cc4c(=O)n3C)CC2)c1` (centres unmarked) [compound 85], in that order: 10 to 25 µM and 25 to 100%.
With `COc1ccc(S(=O)(=O)N2CCN(C(C)c3nc(N4CCC5(CC4)OCCCO5)c4ccccc4n3)CC2)cc1` (centres unmarked) [compound 328], the EC50 lay in the range of 10 to 25 µM and the Emax was greater than 100%.
For `CC(c1nc2ccccc2c(=O)n1C)N1CCN(S(=O)(=O)c2ccc(Cl)c(Cl)c2)CC1` (centres unmarked) [compound 241], in that order: less than 10 µM and greater than 100%.
In the same order, the values of `CC(c1nc2cc(Cl)ccc2c(=O)n1C)N1CCN(S(=O)(=O)c2ccc(Cl)cc2)CC1` (centres unmarked) [compound 94] are less than 10 µM and 25 to 100%.
For `COc1ccc(S(=O)(=O)N2CCN(C(C)c3nc(N4CCC(CO)CC4)c4ccccc4n3)CC2)cc1` (centres unmarked) [compound 347], in that order: 25 to 60 µM and 25 to 100%.
On to `COc1cc2nc(C(C)N3CCN(S(=O)(=O)c4ccc(C)cc4)CC3)n(C)c(=O)c2cc1OC` (centres unmarked) [compound 286], for which the 50% effective concentration (EC50) is 25 to 60 µM and the Emax fell in the range of 25 to 100%.
In the same order, the values of `COc1ccc(S(=O)(=O)N2CCN(C(C)c3ncc(CO)c(N4CCCCC4)n3)CC2)cc1` (centres unmarked) [compound 359] are 25 to 60 µM and 25 to 100%.
In the same order, the values of `COc1ccc(S(=O)(=O)N2CCN(Cc3nc(OC4CCCC4)c4ccccc4n3)CC2)cc1` [compound 386] are less than 10 µM and greater than 100%.
`COc1ccc(S(=O)(=O)N2CCN(Cc3nc4ccccc4c(=O)[nH]3)CC2)cc1` [compound 383]: the EC50 fell in the range of 25 to 60 µM and the Emax is less than 25%.
In the same order, the values of `COc1ccc(S(=O)(=O)N2CCN(C(C)c3nc(N4CC=CCC4)c4ccccc4n3)CC2)cc1` (centres unmarked) [compound 392] are less than 10 µM and greater than 100%.

The EC50 is the concentration needed to bring the measured effect to its halfway point. What is called Emax is the maximal effect, on the per cent scale that the assay sets.
